Laboratory results as given in patent US20060252683A1, “Preparation of a peptide compound (SYRAPRO-2000) and its use for the activation of protein phosphatase-2A1 enzyme” (priority 2005, published 2006).

Biological target: protein phosphatase-2A1 (Homo sapiens, UniProt P67775)
Test: Activation of protein phosphatase-2A1 in intact Jurkat cells (DEAE Sepharose fractions of extracts assayed)
Type: cell-based
Parameters: Protein phosphatase-2A1 purified from CD^4+ T cells as described in materials and method; endogenous in cells; host or cells: Jurkat cells; enzyme purified by DEAE Sepharose, Sephacryl S-300 HR and poly-L-lysine Agarose
Conditions: Jurkat cells treated with 1000 nM for 1 hour, 0.001% DMSO
Protocol: Jurkat cells (a CD^4+ T cell line) were grown in RPMI 1640 and 10% (v/v) fetal bovine serum. 1600 ml of cell suspension (10^6 cells per ml) were split into two flasks and one was treated with SYRAPRO-2000 for 1 hour (circles) while the other was not (squares). The cells from each flask were collected by centrifugation, washed with 50 mM Imidazole-Cl pH 7.2 plus 150 mM NaCl and then homogenized in homogenization buffer as described in materials and methods. The homogenate from each flask was chromatographed on a DEAE Sepharose column and the eluted fractions were assayed for type 2A protein phosphatase activity as described in materials and method. Similar results were obtained in 3 independent experiments.
The effect of synthesized SYRAPRO-2000 on protein phosphatase-2A1 can be determined in intact cells. Jurkat cells, a human CD^4+ T transformed cell line. Jurkat cells are grown in RPMI 1680 medium supplemented with 5% (v/v) fetal bovine serum and antibiotics and treated or not with 1 μM of SYRAPRO-2000 for 60 minutes. Following treatment with SYRAPRO-2000, cells are harvested by centrifugation, washed and homogenized. A cell extract is prepared by centrifugation and loaded onto a DEAE Sepharose column which is washed and eluted with a liner gradient of buffer plus 0 mM NaCl to buffer plus 400 mM NaCl. […]

Chain of protein phosphatase-2A1 (P67775 whole entry): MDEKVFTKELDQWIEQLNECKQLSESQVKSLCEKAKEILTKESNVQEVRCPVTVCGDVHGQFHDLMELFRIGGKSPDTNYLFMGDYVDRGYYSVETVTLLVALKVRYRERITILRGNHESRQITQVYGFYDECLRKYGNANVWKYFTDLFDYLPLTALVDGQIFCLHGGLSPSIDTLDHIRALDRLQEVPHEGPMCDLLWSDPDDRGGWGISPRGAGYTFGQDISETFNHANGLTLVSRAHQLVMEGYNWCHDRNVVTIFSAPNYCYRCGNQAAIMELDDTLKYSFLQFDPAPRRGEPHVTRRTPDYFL
Chain of protein phosphatase-2A1 (P30153 whole entry partner): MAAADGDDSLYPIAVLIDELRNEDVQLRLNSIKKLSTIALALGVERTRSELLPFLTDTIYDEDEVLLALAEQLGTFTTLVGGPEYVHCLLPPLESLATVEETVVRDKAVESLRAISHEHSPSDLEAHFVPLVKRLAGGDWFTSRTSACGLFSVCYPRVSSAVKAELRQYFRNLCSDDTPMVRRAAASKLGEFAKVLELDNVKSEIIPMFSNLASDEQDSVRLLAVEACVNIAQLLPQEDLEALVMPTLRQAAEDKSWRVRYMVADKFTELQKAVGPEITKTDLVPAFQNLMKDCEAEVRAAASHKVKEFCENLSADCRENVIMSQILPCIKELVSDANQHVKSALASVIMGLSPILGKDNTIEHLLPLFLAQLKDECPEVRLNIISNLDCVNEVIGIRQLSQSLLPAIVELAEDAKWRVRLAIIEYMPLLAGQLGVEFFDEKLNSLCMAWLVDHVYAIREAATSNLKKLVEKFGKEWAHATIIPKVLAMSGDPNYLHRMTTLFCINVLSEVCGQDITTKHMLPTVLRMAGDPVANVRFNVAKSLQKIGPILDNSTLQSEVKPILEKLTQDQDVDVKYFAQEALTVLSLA
Chain of protein phosphatase-2A1 (P63151 whole entry partner): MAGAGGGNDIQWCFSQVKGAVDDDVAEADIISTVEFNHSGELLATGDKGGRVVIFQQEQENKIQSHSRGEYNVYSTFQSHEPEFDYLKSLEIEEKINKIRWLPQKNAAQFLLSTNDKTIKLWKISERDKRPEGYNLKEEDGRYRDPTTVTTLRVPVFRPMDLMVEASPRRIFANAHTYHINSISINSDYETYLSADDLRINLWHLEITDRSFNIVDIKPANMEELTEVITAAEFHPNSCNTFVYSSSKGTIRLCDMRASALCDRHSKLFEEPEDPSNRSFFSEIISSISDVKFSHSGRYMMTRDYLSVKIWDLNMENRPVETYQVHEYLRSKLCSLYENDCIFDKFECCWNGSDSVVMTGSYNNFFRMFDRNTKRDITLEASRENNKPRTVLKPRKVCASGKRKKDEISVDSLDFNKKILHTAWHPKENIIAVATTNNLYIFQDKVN

`CC[C@H](C)[C@H](NC(=O)[C@H](CCCNC(=N)N)NC(=O)[C@H](CO)NC(=O)[C@H](Cc1c[nH]cn1)NC(=O)[C@H](CCCNC(=N)N)NC(=O)[C@H](CS)NC(=O)CNC(=O)[C@@H](NC(=O)[C@H](CCCNC(=N)N)NC(=O)[C@H](Cc1ccccc1)NC(=O)[C@@H](N)Cc1c[nH]cn1)[C@@H](C)CC)C(=O)NCC(=O)N[C@H](C(=O)N[C@H](C(=O)N[C@@H](CCCNC(=N)N)C(=O)N[C@@H](CCC(N)=O)C(=O)N[C@@H](CCCNC(=N)N)C(=O)N[C@@H](CCCNC(=N)N)C(=O)N[C@@H](C)C(=O)N[C@@H](CCCNC(=N)N)C(=O)N[C@@H](CC(N)=O)C(=O)NCC(=O)N[C@@H](C)C(=O)N[C@@H](CO)C(=O)N[C@@H](CCCNC(=N)N)C(=O)N[C@@H](CO)C(=O)O)[C@@H](C)O)C(C)C` [SYRAPRO-2000] was tested, and the “activity of protein phosphatase-2A1 in intact cells” value was “became activated”.
